This note sets out measurements from ChEMBL document CHEMBL3832545, “DailyMed|setid=29481887-34eb-460a-bd7f-b8755473065a | EXELON - rivastigmine patch, extended release|Physicians Total Care, Inc”.

The Tmax is the time from dosing to the highest level.

Holding throughout (assay type): ADME, organism-based
A short description of data set [1]: (§1) Evaluation of the pharmacokinetic parameters for Rivastigmine 0.5 to 1 hour after administration of 9.5 mg/24 hours Rivastigmine transdermal system (Exelon patch). The conditions noted are these: human, in vivo, topical or ocular, dosed compound id 5, dosed compound name RIVASTIGMINE, regimen Single dose, sampling time1 0.5-1 hr, study dosing duration 24 hr, tissue Plasma.

In data set [2] the test system is Homo sapiens. The data set is described as §1. The following applies: in vivo, topical_or_ocular, dosed compound id 5, dosed compound name RIVASTIGMINE, regimen Single dose, sampling time1 0.5-1 hr, study dosing duration 24 hr.
Data set [3] deals with Homo sapiens. Nature of the data set: Evaluation of the pharmacokinetic parameters for Rivastigmine following multiple oral administration of 6 mg Rivastigmine tablets. The conditions noted are these: in vivo, dosed compound id 5, dosed compound name RIVASTIGMINE, regimen Twice daily, tissue Plasma.

In data set [1] (9.5 mg/24 hours), `CCN(C)C(=O)Oc1cccc([C@H](C)N(C)C)c1` [RIVASTIGMINE] yielded a CL renal of 35 to 46.7 mL/min. The fraction unbound in data set [1] (at 9.5 mg, read-out: Protein binding (converted)) was 0.6. For the same compound, the Tmax in the data set with Homo sapiens [2] (tissue Cerebrospinal Fluid (CSF)) fell in the range of 1.4 to 2.6 h. Further, in the data set on Homo sapiens [2] (tissue Plasma), the Tmax came out at 8 h and the Vd lay in the range of 1.8 to 2.7 L/kg. The “Ratio AUC(inf)” value in the data set on Homo sapiens [3] stood at 3.5.
